From patent US20170014417A1, “PHARMACEUTICAL ADMINISTRATION SYSTEM FOR THE TRANSDERMAL APPLICATION OF VARDENAFIL” (LIPP LIFE SCIENCES LLC, priority 2015, published 2017)
Read-outs that look alike come from different tables or passages of the source.

Assays:
[1] = cited from earlier work
[2] = in vitro-permeation test through Heat Separated Human Epidermis (HSHE), Hanson Vertical Diffusion Cells; format: in vitro ADME; details: Formulation 3
Description: In a 10 mL flask with a stopper, 100 mg of vardenafil (base; from LGM Pharma) and 400 mg of isopropylmyristate were mixed with 9.5 g of 2-propanol/water (70% v/v) and shaken for 10 minutes at ambient temperature to obtain the formulation below. The resulting crystal free formulation was subjected to an in vitro-permeation test through Heat Separated Human Epidermis (HSHE), which is highly predictive for in vivo-transdermal flux rates.
Permeation experiments were conducted in duplicate (using 2 cells) following a Standard Operating Procedure for using Hanson Vertical Diffusion Cells (7 mL) mounted with Heat Separated Human Epidermis, an in vitro-experiment with high predictability for transdermal in vivo-fluxes. […]
200 mg of the formulation were applied on each Heat Separated Human Epidermis. […] Samples were withdrawn at predetermined time intervals (see Tables 1 and 2 below) and subjected to HPLC quantification of vardenafil (V).
Permeation experiments were conducted following a Standard Operating Procedure for using Hanson Vertical Diffusion Cells (7 mL) mounted with Heat Separated Human Epidermis, an in vitro-experiment with high predictability for transdermal in vivo-fluxes. […] Samples were withdrawn at predetermined time intervals (see Table 3 below) and subjected to HPLC quantification of vardenafil (V). […]

[3] = Calculation of required transdermal flux rates for the once daily treatment of erectile dysfunction (ED); details: human
[4] = cited from earlier work; remark: listed apart in the source

SMILES: C[C@]12CC[C@H]3[C@@H](CCC4=CC(=O)CC[C@@]43C)[C@@H]1CC[C@@H]2O [testosterone]
- log P [1]: 3.4

SMILES: CN1CC(=O)N2[C@H](c3ccc4c(c3)OCO4)c3[nH]c4ccccc4c3C[C@@H]2C1=O [tadalafil]
- log P ([1]; Table 12): 1.7

SMILES: CCCc1nc(C)c2c(=O)[nH]c(-c3cc(S(=O)(=O)N4CCN(CC)CC4)ccc3OCC)nn12 [vardenafil]
- transdermal flux rate achieved (formulation) [2]: 27 μg/cm^2 μg/cm^2 over 24 h
- log P ([1]; Table 12): 1.4
- log P [1]: 1.4
- systemically available required dose for once daily treatment of ED (calculated) [3]: 0.75 mg
- calculated transdermal flux rates required to deliver systemic doses for treatment of ED upon application on 200 cm^2 ([3]; 24 h): 3.8 μg/cm^2 μg/cm^2 over 24 h
- plasma half-life ([4]; after oral administration): approximately 3 h
- median time to reach maximum concentration in plasma ([4]; oral administration, fasted state (Staxyn prescribing information)): 1.5 h
- absolute bioavailability ([4]; upon oral dosing in man): approximately 15%

SMILES: CCCc1nn(C)c2c(=O)[nH]c(-c3cc(S(=O)(=O)N4CCN(C)CC4)ccc3OCC)nc12 [sildenafil]
- log P ([1]; Table 12): 1.9
